How the values were obtained:
[1] = target: Serine/threonine-protein kinase N1 (Homo sapiens, UniProt Q16512); assay: Selectivity interaction (ActivX KiNativ screen (kinase selectivity in THP-1 cell lysates)) EUB0000639a PKN1; type: subcellular; conditions: lysate, at 1 µM
[2] = target: Tyrosine-protein kinase CSK (Homo sapiens) (UniProt P41240); assay: Selectivity interaction (ActivX KiNativ screen (kinase selectivity in THP-1 cell lysates)) EUB0000639a CSK; type: subcellular; conditions: lysate, at 0.04 µM
Sequence of Tyrosine-protein kinase CSK (Homo sapiens) (P41240 2-450 limits assumed): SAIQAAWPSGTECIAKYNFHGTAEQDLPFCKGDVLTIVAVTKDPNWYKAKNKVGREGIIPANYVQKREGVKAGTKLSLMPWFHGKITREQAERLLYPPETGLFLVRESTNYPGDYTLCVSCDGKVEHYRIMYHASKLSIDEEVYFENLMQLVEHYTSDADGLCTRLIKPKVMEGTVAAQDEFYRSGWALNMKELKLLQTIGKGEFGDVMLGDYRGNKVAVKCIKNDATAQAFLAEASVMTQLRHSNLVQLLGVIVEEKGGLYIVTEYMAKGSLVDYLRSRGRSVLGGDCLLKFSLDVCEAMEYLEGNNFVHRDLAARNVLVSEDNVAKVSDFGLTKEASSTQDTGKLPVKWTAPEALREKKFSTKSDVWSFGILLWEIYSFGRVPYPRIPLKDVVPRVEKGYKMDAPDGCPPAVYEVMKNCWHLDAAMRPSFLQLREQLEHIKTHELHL

[3] = target: Mitogen-activated protein kinase kinase kinase 4 (Homo sapiens) (UniProt Q9Y6R4); assay: Selectivity interaction (KinomeScan (DiscoverX)) EUB0000092b MAP3K4; conditions: at 10 µM
Sequence of Mitogen-activated protein kinase kinase kinase 4 (Homo sapiens) (Q9Y6R4 whole entry): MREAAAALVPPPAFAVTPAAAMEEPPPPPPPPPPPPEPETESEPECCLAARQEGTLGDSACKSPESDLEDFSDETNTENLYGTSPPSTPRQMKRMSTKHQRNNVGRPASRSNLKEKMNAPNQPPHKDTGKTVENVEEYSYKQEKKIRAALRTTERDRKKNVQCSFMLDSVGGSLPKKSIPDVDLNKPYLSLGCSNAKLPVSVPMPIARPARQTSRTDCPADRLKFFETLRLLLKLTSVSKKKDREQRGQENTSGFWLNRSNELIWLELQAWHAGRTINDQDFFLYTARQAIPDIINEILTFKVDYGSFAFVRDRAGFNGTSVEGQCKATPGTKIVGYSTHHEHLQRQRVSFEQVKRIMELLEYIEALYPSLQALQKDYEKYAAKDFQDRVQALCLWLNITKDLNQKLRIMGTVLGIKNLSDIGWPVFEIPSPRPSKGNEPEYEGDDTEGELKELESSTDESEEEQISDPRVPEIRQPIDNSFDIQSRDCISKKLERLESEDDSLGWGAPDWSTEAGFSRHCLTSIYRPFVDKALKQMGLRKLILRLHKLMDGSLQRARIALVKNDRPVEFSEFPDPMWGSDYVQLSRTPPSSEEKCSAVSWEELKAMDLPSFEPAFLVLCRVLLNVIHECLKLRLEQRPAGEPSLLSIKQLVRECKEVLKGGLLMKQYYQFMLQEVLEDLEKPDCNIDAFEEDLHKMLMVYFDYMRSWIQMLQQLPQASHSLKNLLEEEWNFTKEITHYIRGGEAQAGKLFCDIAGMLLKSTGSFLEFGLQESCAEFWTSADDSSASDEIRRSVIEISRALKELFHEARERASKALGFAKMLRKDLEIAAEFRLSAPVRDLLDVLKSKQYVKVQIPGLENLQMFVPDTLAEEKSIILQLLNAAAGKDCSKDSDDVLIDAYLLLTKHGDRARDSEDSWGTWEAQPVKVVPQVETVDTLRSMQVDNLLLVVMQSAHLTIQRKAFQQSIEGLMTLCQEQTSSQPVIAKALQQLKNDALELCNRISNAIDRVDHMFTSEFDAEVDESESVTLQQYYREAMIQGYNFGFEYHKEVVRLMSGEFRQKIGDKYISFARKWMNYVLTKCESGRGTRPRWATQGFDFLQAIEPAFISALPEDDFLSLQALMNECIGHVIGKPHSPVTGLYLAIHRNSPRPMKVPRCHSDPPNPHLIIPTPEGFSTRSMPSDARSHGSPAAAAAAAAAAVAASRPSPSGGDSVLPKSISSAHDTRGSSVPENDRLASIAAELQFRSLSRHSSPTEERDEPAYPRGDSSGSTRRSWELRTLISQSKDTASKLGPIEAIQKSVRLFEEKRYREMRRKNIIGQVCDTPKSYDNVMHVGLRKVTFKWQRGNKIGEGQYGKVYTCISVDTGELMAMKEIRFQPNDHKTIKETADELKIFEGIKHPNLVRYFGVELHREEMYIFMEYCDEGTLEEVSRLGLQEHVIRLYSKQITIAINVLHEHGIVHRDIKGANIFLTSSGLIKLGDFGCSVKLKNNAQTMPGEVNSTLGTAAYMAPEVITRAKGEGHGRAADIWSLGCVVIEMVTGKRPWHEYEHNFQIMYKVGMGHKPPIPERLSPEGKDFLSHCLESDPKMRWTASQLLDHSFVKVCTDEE

[4] = target: T1, Serine/threonine-protein kinase MAK (Homo sapiens) (UniProt P20794); assay: Selectivity interaction (KinomeScan (DiscoverX)) EUB0000092b MAK; conditions: at 10 µM
T1 sequence (whole entry): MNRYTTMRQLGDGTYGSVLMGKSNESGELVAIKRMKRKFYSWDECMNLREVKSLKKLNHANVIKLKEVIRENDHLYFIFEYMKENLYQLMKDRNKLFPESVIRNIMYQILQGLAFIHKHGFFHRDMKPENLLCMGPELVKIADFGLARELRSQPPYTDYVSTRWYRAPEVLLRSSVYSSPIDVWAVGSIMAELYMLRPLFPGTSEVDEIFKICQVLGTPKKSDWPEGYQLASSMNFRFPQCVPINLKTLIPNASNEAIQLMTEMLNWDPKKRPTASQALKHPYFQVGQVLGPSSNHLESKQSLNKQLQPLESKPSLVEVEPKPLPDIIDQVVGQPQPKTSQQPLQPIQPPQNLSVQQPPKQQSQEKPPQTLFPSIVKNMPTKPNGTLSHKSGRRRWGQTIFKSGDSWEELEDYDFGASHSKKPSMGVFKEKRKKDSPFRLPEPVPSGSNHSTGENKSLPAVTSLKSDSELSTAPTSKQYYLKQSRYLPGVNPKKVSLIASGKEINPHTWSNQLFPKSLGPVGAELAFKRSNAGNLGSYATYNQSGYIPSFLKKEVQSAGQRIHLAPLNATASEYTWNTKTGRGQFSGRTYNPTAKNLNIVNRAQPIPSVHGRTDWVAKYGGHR

[5] = target: Tyrosine-protein kinase Yes (Homo sapiens) (UniProt P07947); assay: Selectivity interaction (Kinase screening (Nanosyn)) EUB0000604a YES1
Sequence of Tyrosine-protein kinase Yes (Homo sapiens) (P07947 2-543 limits assumed): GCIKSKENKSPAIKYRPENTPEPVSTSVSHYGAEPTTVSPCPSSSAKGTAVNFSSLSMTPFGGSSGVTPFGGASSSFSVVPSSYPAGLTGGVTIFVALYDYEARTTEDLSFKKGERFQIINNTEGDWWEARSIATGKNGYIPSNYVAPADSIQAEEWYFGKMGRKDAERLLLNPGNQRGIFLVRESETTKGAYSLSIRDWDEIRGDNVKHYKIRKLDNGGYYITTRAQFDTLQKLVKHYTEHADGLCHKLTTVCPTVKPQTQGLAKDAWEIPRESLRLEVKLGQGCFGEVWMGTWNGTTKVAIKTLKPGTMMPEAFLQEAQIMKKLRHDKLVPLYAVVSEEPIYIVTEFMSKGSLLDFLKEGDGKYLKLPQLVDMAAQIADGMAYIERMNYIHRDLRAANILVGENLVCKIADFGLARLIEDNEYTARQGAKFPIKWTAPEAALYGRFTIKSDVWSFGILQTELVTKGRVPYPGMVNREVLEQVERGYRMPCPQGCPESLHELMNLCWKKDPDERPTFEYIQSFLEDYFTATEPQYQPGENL

[6] = target: T2, TGF-beta receptor type-1 (Homo sapiens) (UniProt P36897); assay: Selectivity interaction (Ambit KINOMEscan and KiNATiv profiling in Jurkat cells) EUB0000090b TGFBR1; type: cell-based; conditions: at 1 µM
T2 sequence (whole entry): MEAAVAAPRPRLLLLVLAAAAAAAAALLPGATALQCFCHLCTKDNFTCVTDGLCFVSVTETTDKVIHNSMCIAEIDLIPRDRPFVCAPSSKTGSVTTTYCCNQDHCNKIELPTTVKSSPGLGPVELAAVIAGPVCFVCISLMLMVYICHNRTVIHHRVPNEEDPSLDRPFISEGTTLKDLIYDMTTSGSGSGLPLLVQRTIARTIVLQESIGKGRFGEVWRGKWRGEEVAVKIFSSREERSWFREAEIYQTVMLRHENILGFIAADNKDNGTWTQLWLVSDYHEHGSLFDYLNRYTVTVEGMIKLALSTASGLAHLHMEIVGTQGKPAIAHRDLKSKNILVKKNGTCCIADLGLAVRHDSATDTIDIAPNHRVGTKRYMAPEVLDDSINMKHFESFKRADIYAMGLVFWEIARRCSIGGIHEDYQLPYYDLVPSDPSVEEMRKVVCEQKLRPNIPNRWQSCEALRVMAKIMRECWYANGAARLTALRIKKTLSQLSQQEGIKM

[7] = target: Dual specificity protein kinase CLK2 (Homo sapiens, UniProt P49760); assay: Selectivity interaction (KinomeScan (DiscoverX)) EUB0000618a CLK2; conditions: at 10 µM
Sequence of Dual specificity protein kinase CLK2 (P49760 whole entry, looked up): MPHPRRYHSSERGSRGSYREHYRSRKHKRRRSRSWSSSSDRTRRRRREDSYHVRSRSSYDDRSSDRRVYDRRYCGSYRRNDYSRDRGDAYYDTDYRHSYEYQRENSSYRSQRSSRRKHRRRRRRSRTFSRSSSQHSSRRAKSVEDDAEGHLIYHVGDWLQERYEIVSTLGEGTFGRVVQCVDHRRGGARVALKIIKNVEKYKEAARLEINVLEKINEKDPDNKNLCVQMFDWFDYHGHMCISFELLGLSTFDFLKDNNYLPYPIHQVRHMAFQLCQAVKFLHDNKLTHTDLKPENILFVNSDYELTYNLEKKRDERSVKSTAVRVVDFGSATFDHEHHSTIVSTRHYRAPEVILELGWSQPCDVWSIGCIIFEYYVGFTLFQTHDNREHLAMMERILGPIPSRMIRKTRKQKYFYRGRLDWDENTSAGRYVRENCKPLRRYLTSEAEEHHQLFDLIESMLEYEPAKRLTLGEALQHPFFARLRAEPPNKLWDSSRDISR

[8] = target: T3, Serine/threonine-protein kinase Nek5 (Homo sapiens) (UniProt Q6P3R8); assay: Selectivity interaction (KinomeScan (DiscoverX)) EUB0001619a NEK5; conditions: at 1 µM
T3 sequence (whole entry): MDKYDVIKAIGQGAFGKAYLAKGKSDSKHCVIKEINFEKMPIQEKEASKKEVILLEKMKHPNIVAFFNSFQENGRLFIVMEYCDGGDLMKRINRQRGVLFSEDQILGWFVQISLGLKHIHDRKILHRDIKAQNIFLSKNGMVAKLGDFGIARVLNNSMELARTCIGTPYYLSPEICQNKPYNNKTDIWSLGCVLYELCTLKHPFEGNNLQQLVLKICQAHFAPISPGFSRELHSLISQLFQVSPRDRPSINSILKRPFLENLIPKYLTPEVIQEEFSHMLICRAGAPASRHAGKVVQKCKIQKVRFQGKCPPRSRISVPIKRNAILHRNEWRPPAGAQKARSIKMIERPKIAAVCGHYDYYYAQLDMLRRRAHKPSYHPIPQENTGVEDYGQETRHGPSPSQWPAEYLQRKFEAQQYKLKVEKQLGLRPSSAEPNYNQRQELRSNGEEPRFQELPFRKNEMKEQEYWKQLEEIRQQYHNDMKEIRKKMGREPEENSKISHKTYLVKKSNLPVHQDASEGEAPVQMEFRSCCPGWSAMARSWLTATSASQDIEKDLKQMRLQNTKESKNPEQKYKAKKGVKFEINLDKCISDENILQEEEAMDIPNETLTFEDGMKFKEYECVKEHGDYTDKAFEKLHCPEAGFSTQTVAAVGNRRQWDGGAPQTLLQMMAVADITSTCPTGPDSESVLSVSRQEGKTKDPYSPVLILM

[9] = target: T4, Phosphatidylinositol 5-phosphate 4-kinase type-2 gamma (Homo sapiens) (UniProt Q8TBX8); assay: Selectivity interaction (ActivX KiNativ screen (ex vivo kinase selectivity in human PBMCs)) EUB0001619a PIP4K2C; type: cell-based; conditions: PBMC, at 1 µM
T4 sequence (whole entry): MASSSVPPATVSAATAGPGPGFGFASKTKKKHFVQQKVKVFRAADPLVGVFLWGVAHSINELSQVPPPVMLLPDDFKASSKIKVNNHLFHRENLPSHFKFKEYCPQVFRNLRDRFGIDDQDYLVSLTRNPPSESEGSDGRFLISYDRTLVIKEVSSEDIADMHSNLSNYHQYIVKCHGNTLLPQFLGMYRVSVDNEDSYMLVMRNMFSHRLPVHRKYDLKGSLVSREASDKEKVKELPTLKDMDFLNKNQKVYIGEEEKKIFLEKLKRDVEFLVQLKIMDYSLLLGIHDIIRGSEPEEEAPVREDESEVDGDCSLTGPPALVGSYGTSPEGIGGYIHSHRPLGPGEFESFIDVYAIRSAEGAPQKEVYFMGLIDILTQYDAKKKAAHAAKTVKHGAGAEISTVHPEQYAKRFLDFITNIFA

[10] = target: eIF-2-alpha kinase GCN2 (Homo sapiens) (UniProt Q9P2K8); assay: Selectivity interaction (ActivX KiNativ screen (ex vivo kinase selectivity in human PBMCs)) EUB0001619a EIF2AK4; type: cell-based; conditions: PBMC, at 1 µM
D(1A) dopamine receptor = D(1A) dopamine receptor (Homo sapiens, UniProt P21728); assay: Selectivity interaction (Panel of kinases, GPCRs, ion channels and transporters (enzymatic assay)) EUB0000266bCl DRD1
Sequence of D(1A) dopamine receptor (P21728 whole entry): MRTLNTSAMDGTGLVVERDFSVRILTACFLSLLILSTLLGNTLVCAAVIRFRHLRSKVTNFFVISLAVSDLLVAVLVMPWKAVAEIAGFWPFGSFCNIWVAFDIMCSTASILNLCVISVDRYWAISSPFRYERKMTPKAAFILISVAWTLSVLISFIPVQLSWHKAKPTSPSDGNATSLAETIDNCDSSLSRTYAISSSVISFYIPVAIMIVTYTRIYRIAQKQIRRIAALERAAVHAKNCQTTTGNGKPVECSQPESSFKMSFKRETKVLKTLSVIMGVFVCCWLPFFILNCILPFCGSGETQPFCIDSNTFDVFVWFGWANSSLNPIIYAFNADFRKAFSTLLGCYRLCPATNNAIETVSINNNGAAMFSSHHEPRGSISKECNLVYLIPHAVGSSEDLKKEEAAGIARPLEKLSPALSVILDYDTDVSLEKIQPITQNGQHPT

Sequence of Serine/threonine-protein kinase N1 (Q16512 2-942 limits assumed): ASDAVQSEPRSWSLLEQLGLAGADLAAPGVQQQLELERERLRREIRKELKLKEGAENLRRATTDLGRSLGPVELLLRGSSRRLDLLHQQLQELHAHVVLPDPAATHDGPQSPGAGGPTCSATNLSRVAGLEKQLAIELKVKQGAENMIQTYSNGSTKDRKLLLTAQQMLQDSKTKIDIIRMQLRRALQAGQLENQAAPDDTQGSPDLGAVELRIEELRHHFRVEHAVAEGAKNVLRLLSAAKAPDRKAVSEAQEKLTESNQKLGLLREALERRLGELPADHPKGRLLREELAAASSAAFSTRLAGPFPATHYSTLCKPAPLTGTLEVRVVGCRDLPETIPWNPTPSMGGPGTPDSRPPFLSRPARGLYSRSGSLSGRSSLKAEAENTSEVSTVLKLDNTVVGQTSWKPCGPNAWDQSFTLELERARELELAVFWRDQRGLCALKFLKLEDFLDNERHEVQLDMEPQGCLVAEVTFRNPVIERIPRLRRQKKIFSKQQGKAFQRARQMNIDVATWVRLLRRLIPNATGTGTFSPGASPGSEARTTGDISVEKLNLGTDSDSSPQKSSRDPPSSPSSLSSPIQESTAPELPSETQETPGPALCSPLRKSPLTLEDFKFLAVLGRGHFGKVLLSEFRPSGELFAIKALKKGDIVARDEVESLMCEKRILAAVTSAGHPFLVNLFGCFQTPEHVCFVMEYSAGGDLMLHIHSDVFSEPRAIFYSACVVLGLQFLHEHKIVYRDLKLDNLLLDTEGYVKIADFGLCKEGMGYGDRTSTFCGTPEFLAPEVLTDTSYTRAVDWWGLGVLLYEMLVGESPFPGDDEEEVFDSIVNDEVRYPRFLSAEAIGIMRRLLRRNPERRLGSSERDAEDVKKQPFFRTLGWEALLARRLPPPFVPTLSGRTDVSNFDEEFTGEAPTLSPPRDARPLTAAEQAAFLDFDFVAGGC

CC[C@@H]1[C@H](F)C(=O)N[C@@H]1COc1nccc2cc(C(N)=O)c(OC)cc12 [ZIMLOVISERTIB]
% of inhibition [1]: -0.1% | % of inhibition [2]: 7.9%

CCC(=O)N1CCN(c2ccc(-n3c(=O)ccc4cnc5ccc(-c6cnc7ccccc7c6)cc5c43)cc2C(F)(F)F)CC1
% of control [3]: 47% | % of control [4]: 68%

Cc1cnc(Nc2ccc(F)cc2Cl)nc1-c1c[nH]c(C(=O)N[C@H](CO)c2cccc(Cl)c2)c1
% of inhibition [5]: 5%

CN(C)C/C=C/C(=O)Nc1ccc(C(=O)N2CCCC(Nc3ncc(Cl)c(-c4c[nH]c5ccccc45)n3)C2)cc1 (stereo unspecified)
% of control [6]: 87%

O[C@H]1CC[C@H](Nc2ncc3nc(Nc4c(F)cc(F)cc4F)n([C@H]4CCOC4)c3n2)CC1
% of control [7]: 7.7%

N#Cc1cccc(-c2c[nH]c3ncnc(N4CCOCC4)c23)c1
% of control [8]: 100% | % of inhibition [9]: 58% | % of inhibition [10]: 1%

CCn1c(-c2nc3cc(C(=O)N4CCCC(N)C4)ccc3n2C)cc2ccccc21 (stereo unspecified)
pXC50 (D(1A) dopamine receptor): 4.6 M
